Experimental data from patent US20150011423A1, “MEANS AND METHODS FOR ASSESSING KIDNEY TOXICITY” (BASF SE, priority 2011, published 2015).
Marks after values point to notes of the source that are not given here.

Tested on: rats
Experiment: 28-day repeated dose study in rats with mass spectrometry-based plasma metabolite profiling (GC-MS, LC-MS, SPE-LC-MS); treatment ratios versus control
Details: plasma; for Choline plasmalogen No 02 (putative), treatment ratio versus control / Lyso PE (C22:0) (putative), treatment ratio versus control / Lysophosphatidylcholine (C17:0), treatment ratio versus control / TAG (C42:9) (DAG-Fragment) (putative), treatment ratio versus control / Creatine, treatment ratio versus control / Creatinine, treatment ratio versus control / Glycerol-3-phosphate, polar fraction, treatment ratio versus control / Lysophosphatidylcholine (C18:2), treatment ratio versus control / Threonic acid, treatment ratio versus control / 4-Hydroxy-3-methoxyphenylglycol (HMPG), treatment ratio versus control / Cysteine, treatment ratio versus control / Isopalmitic acid (C16:0), treatment ratio versus control / Metanephrine, treatment ratio versus control / Normetanephrine, treatment ratio versus control: male rats; for Choline plasmalogen No 02 (putative), treatment ratio versus control / Lyso PE (C22:0) (putative), treatment ratio versus control / Lysophosphatidylcholine (C17:0), treatment ratio versus control / TAG (C42:9) (DAG-Fragment) (putative), treatment ratio versus control: Table 11b alpha 2 u globulin-nephropathy; for Creatine, treatment ratio versus control / Creatinine, treatment ratio versus control / Glycerol-3-phosphate, polar fraction, treatment ratio versus control / Lysophosphatidylcholine (C18:2), treatment ratio versus control / Threonic acid, treatment ratio versus control: Table 2c glomerular-tubular defect; for 4-Hydroxy-3-methoxyphenylglycol (HMPG), treatment ratio versus control / Cysteine, treatment ratio versus control / Isopalmitic acid (C16:0), treatment ratio versus control / Metanephrine, treatment ratio versus control / Normetanephrine, treatment ratio versus control: Table 2d glomerular-tubular defect
[1] = day 7, high doses except for 1,1,2,2-tetrachloroethane
[2] = day 14, high doses except for 1,1,2,2-tetrachloroethane
[3] = day 28, high doses except for 1,1,2,2-tetrachloroethane

Procedure: A group of each 5 male and female rats was dosed once daily with the indicated compounds (see Table 9, below for compounds, applied doses and administration details) over 28 days.
Each dose group in the studies consisted of five rats per sex. Additional groups of each 5 male and female animals served as controls. Before starting the treatment period, animals, which were 62-64 days old when supplied, were acclimatized to the housing and environmental conditions for 7 days. All animals of the animal population were kept under the same constant temperature (20-24±3° C.) and the same constant humidity (30-70%). The animals of the animal population were fed ad libitum. The food to be used was essentially free of chemical or microbial contaminants. Drinking water was also offered ad libitum. […] The illumination period was 12 hours light followed by 12 hours darkness (12 hours light, from 6:00 to 18:00, and 12 hours darkness, from 18:00 to 6:00). […] The test substances (compounds in Table 9 were dosed and administered as described in the table above.
In the morning of day 7, 14, and 28, blood was taken from the retroorbital venous plexus from fasted anaesthetized animals. From each animal, 1 ml of blood was collected with EDTA as anticoagulant. The samples were centrifuged for generation of plasma. All plasma samples were covered with a N2 atmosphere and then stored at −80° C. until analysis.
For mass spectrometry-based metabolite profiling analyses plasma samples were extracted and a polar and a non-polar (lipid) fraction was obtained. For GC-MS analysis, the non-polar fraction was treated with methanol under acidic conditions to yield the fatty acid methyl esters. Both fractions were further derivatised with O-methyl-hydroxyamine hydrochloride and pyridine to convert Oxo-groups to O-methyloximes and subsequently with a silylating agent before analysis. In LC-MS analysis, both fractions were reconstituted in appropriate solvent mixtures. HPLC was performed by gradient elution on reversed phase separation columns.
Steroids and their metabolites were measured by online SPE-LC-MS (Solid phase extraction-LC-MS).
Following comprehensive analytical validation steps, the data for each analyte were normalized against data from pool samples. These samples were run in parallel through the whole process to account for process variability. The significance of treatment group values specific for sex, treatment duration and metabolite was determined by comparing means of the treated groups to the means of the respective untreated control groups using WELCH-test and quantified with treatment ratios versus control and p-values.

With CC(C)CC(C)(C)C [2,2,4-Trimethylpentane, 2,2,4-trimethylpentane] the “3-Hydroxyindole (ratio treated vs control)” value (m7: male rats, day 7) was 1.92, the “4-Hydroxysphinganine (t18:0, Phytosphingosine), total (ratio treated vs control)” value (m7: male rats, day 7) was 1.46 and the “Glucuronic acid (ratio treated vs control)” value (m7: male rats, day 7) was 3.88. For the same compound, the “Glutamate (ratio treated vs control)” value (m7: male rats, day 7) was 1.57, the “Nervonic acid (C24:cis[15]1) (ratio treated vs control)” value (m7: male rats, day 7) was 1.60 and the “Oleic acid (C18:cis[9]1) (ratio treated vs control)” value (m7: male rats, day 7) was 2.10. The “Ornithine (ratio treated vs control)” value (m7: male rats, day 7) was 1.12, the “Pantothenic acid (ratio treated vs control)” value (m7: male rats, day 7) was 2.59 and the “Phosphatidylcholine (C18:0, C18:1) (ratio treated vs control)” value (m7: male rats, day 7) was 1.35. For the same compound, the “Pseudouridine (ratio treated vs control)” value (m7: male rats, day 7) was 1.23, the “Sphingomyelin (d18:1, C16:0) (ratio treated vs control)” value (m7: male rats, day 7) was 1.62 and the “Sphingomyelin (d18:2, C18:0) (ratio treated vs control)” value (m7: male rats, day 7) was 1.35. The “Xylitol (ratio treated vs control)” value (m7: male rats, day 7) was 1.65, the “dihomo-gamma-Linolenic acid (C20:cis[8,11,14]3) (ratio treated vs control)” value (m7: male rats, day 7) was 2.42 and the “3-Hydroxyindole (ratio treated vs control)” value (m14: male rats, day 14) was 2.88. For the same compound, the “4-Hydroxysphinganine (t18:0, Phytosphingosine), total (ratio treated vs control)” value (m14: male rats, day 14) was 1.34, the “Glucuronic acid (ratio treated vs control)” value (m14: male rats, day 14) was 3.87 and the “Glutamate (ratio treated vs control)” value (m14: male rats, day 14) was 1.44. The “Nervonic acid (C24:cis[15]1) (ratio treated vs control)” value (m14: male rats, day 14) was 1.38, the “Oleic acid (C18:cis[9]1) (ratio treated vs control)” value (m14: male rats, day 14) was 2.37 and the “Ornithine (ratio treated vs control)” value (m14: male rats, day 14) was 1.23. The “Pantothenic acid (ratio treated vs control)” value (m14: male rats, day 14) was 3.07, the “Phosphatidylcholine (C18:0, C18:1) (ratio treated vs control)” value (m14: male rats, day 14) was 1.34 and the “Pseudouridine (ratio treated vs control)” value (m14: male rats, day 14) was 1.31. For the same compound, the “Sphingomyelin (d18:1, C16:0) (ratio treated vs control)” value (m14: male rats, day 14) was 1.59, the “Sphingomyelin (d18:2, C18:0) (ratio treated vs control)” value (m14: male rats, day 14) was 1.28 and the “Xylitol (ratio treated vs control)” value (m14: male rats, day 14) was 1.33. For the same compound, the “dihomo-gamma-Linolenic acid (C20:cis[8,11,14]3) (ratio treated vs control)” value (m14: male rats, day 14) was 2.06, the “3-Hydroxyindole (ratio treated vs control)” value (m28: male rats, day 28) was 2.30 and the “4-Hydroxysphinganine (t18:0, Phytosphingosine), total (ratio treated vs control)” value (m28: male rats, day 28) was 1.26. The “Glucuronic acid (ratio treated vs control)” value (m28: male rats, day 28) was 3.46, the “Glutamate (ratio treated vs control)” value (m28: male rats, day 28) was 1.74 and the “Nervonic acid (C24:cis[15]1) (ratio treated vs control)” value (m28: male rats, day 28) was 1.22. For the same compound, the “Oleic acid (C18:cis[9]1) (ratio treated vs control)” value (m28: male rats, day 28) was 2.97, the “Ornithine (ratio treated vs control)” value (m28: male rats, day 28) was 1.23 and the “Pantothenic acid (ratio treated vs control)” value (m28: male rats, day 28) was 3.03. For the same compound, the “Phosphatidylcholine (C18:0, C18:1) (ratio treated vs control)” value (m28: male rats, day 28) was 1.35, the “Pseudouridine (ratio treated vs control)” value (m28: male rats, day 28) was 1.28 and the “Sphingomyelin (d18:1, C16:0) (ratio treated vs control)” value (m28: male rats, day 28) was 1.54. The “Sphingomyelin (d18:2, C18:0) (ratio treated vs control)” value (m28: male rats, day 28) was 1.23, the “Xylitol (ratio treated vs control)” value (m28: male rats, day 28) was 1.68 and the “dihomo-gamma-Linolenic acid (C20:cis[8,11,14]3) (ratio treated vs control)” value (m28: male rats, day 28) was 2.77. For the same compound, the “Choline plasmalogen No 02 (putative), treatment ratio versus control” value [1] was 0.72, the “Lyso PE (C22:0) (putative), treatment ratio versus control” value (“Lyso PE … treatment ratio versus control” below) [1] was 0.54 and the “Lysophosphatidylcholine (C17:0), treatment ratio versus control” value [1] was 0.72. For the same compound, the “TAG (C42:9) (DAG-Fragment) (putative), treatment ratio versus control” value (“TAG … treatment ratio versus control” below) [1] was 0.67, the “Choline plasmalogen No 02 (putative), treatment ratio versus control” value [2] was 0.73 and the “Lyso PE … treatment ratio versus control” value [2] was 0.49. For the same compound, the “Lysophosphatidylcholine (C17:0), treatment ratio versus control” value [2] was 0.73, the “TAG … treatment ratio versus control” value [2] was 0.64 and the “Choline plasmalogen No 02 (putative), treatment ratio versus control” value [3] was 0.81. For the same compound, the “Lyso PE … treatment ratio versus control” value [3] was 0.45, the “Lysophosphatidylcholine (C17:0), treatment ratio versus control” value [3] was 0.80 and the “TAG … treatment ratio versus control” value [3] was 0.76.

In the case of Tricresyl phosphate, the “Creatine, treatment ratio versus control” value (day 7, high dose) is reported as 1.16 *, the “Creatinine, treatment ratio versus control” value (day 7, high dose) is reported as 0.77^ and the “Glycerol-3-phosphate, polar fraction, treatment ratio versus control” value (day 7, high dose) is reported as 0.83 *. The “Lysophosphatidylcholine (C18:2), treatment ratio versus control” value (day 7, high dose) was 1.19^, the “Threonic acid, treatment ratio versus control” value (day 7, high dose) was 1.32 * and the “4-Hydroxy-3-methoxyphenylglycol (HMPG), treatment ratio versus control” value (day 7, high dose) was 0.95^. For the same compound, the “Cysteine, treatment ratio versus control” value (day 7, high dose) was 0.44 *, the “Isopalmitic acid (C16:0), treatment ratio versus control” value (day 7, high dose) was 0.84 * and the “Metanephrine, treatment ratio versus control” value (day 7, high dose) was 0.43 *. The “Normetanephrine, treatment ratio versus control” value (day 7, high dose) was 0.74 *, the “Creatine, treatment ratio versus control” value (day 14, high dose) was 1.42 * and the “Creatinine, treatment ratio versus control” value (day 14, high dose) was 0.74^. The “Glycerol-3-phosphate, polar fraction, treatment ratio versus control” value (day 14, high dose) was 0.89^, the “Lysophosphatidylcholine (C18:2), treatment ratio versus control” value (day 14, high dose) was 1.27 * and the “Threonic acid, treatment ratio versus control” value (day 14, high dose) was 1.5 *. For the same compound, the “4-Hydroxy-3-methoxyphenylglycol (HMPG), treatment ratio versus control” value (day 14, high dose) was 0.93 *, the “Cysteine, treatment ratio versus control” value (day 14, high dose) was 0.51 * and the “Isopalmitic acid (C16:0), treatment ratio versus control” value (day 14, high dose) was 0.76 *. For the same compound, the “Metanephrine, treatment ratio versus control” value (day 14, high dose) was 0.74 *, the “Normetanephrine, treatment ratio versus control” value (day 14, high dose) was 0.71 * and the “Creatine, treatment ratio versus control” value (day 28, high dose) was 1.11 *. For the same compound, the “Creatinine, treatment ratio versus control” value (day 28, high dose) was 0.78 *, the “Glycerol-3-phosphate, polar fraction, treatment ratio versus control” value (day 28, high dose) was 0.89^ and the “Lysophosphatidylcholine (C18:2), treatment ratio versus control” value (day 28, high dose) was 1.15 *. For the same compound, the “Threonic acid, treatment ratio versus control” value (day 28, high dose) was 1.53 *, the “4-Hydroxy-3-methoxyphenylglycol (HMPG), treatment ratio versus control” value (day 28, high dose) was 0.83 * and the “Cysteine, treatment ratio versus control” value (day 28, high dose) was 0.55 *. The “Isopalmitic acid (C16:0), treatment ratio versus control” value (day 28, high dose) was 0.62 *, the “Metanephrine, treatment ratio versus control” value (day 28, high dose) was 0.76^ and the “Normetanephrine, treatment ratio versus control” value (day 28, high dose) was 1.03^.
